Test system: ovoalbumin-sensitized guinea-pig isolated tracheal rings
Assay: Inhibition of antigen (ovoalbumin)-induced contraction in ovoalbumin-sensitized guinea-pig isolated tracheal rings (organ bath)
Description: Male Dunkin-Hartley guinea-pigs (weighing 380-420 g) from Harlan Ibérica (St. Feliu de Codines, Spain) are used. They are housed, with free access to food and water, in rooms kept at 22±2° C. under a 12 hours light-dark cycle until the start of the experiment.
The animals are sensitised by means of two sessions of aerosolization with a solution of 5 mg/ml of ovoalbumin on days zero and 7 of the study. The aerosolization procedure consists of two 30-s nebulisations (Efbe air brush apparatus) with an interval of 5 minutes with animals maintained in a plexiglass box for 10 minutes since the beginning of the procedure.
Between days 14 to 20 from the beginning of the experiment the animals are euthanised and the tracheal tissue is removed. A single tracheal ring is excised and suspended in an organ bath containing Krebs solution. Once attached to a force isometric transducer, it is submitted to a basal resting tension of 1 g, equilibrated with a mixture a 5% CO2 in O2 and maintained at 37° C.
The preparations are allowed to equilibrate for a period of not less than 60 minutes and then the vehicle or the compound(s) to be tested are added to the bath. […] At this moment ovoalbumin is added (at a final concentration in the bath of 10 μg/ml) to elicit the contractile response which is measured immediately.
The contractile responses measured with a force isometric transducer are expressed in mg.

## C[C@H]1C[C@H]2[C@@H]3CCC4=CC(=O)C=C[C@]4(C)[C@@]3(Cl)[C@@H](O)C[C@]2(C)[C@@]1(O)C(=O)CO [BECLOMETHASONE, beclomethasone]
Each compound 10 μM in bath, ovoalbumin 10 μg/ml, relative to vehicle
  % INHIBITION OF THE CONTRACTILE RESPONSE: 12%
ovoalbumin-sensitized guinea-pig tracheal rings, summary of Table 1 and FIG. 1
  inhibition of the contractile response to antigen, comparison in words: smaller effect

Source: US20110021477A1, “COMBINATIONS COMPRISING […] AGENTS AND CORTICOSTERIODS” (priority 2004, published 2011)
